From ChEMBL document CHEMBL1153181, “SAR of N-phenyl piperidine based oral integrin alpha5beta1 antagonists” (Bioorg Med Chem Lett, 2010) come the findings set out here.

For series [1], the target named is T1, Integrin alpha-5/beta-1 (Homo sapiens, UniProt P05556+P08648). Briefly: Inhibition of integrin alpha5beta1 receptor by ELISA. It is filed as protein-complex assay.
The target of a further series is Integrin alpha-V/beta-3 (Homo sapiens, UniProt P05106+P06756). Briefly: Inhibition of integrin […] receptor by ELISA. It is filed as protein-complex assay.
Sequence of Integrin alpha-V/beta-3 (P05106 27-788 limits assumed): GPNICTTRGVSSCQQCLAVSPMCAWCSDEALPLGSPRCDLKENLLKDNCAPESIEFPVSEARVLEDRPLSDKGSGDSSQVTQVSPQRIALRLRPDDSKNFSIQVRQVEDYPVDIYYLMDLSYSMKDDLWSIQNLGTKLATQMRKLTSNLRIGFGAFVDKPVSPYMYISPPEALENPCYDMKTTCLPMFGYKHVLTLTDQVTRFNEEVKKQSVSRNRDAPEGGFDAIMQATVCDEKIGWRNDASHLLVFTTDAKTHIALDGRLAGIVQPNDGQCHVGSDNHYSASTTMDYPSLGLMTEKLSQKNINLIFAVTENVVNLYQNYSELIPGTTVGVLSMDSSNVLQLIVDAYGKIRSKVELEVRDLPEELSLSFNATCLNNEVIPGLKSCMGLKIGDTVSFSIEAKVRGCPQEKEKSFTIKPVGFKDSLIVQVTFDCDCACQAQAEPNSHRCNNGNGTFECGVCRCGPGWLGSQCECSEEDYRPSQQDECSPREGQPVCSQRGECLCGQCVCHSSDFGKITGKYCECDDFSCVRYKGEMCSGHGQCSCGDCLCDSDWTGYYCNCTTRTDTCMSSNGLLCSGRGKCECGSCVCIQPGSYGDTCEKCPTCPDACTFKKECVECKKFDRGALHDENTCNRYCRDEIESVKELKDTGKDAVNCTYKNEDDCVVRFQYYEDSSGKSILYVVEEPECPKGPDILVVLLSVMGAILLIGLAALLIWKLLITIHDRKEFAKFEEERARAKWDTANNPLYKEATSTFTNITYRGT
Sequence of Integrin alpha-V/beta-3 (P06756 31-889 limits assumed): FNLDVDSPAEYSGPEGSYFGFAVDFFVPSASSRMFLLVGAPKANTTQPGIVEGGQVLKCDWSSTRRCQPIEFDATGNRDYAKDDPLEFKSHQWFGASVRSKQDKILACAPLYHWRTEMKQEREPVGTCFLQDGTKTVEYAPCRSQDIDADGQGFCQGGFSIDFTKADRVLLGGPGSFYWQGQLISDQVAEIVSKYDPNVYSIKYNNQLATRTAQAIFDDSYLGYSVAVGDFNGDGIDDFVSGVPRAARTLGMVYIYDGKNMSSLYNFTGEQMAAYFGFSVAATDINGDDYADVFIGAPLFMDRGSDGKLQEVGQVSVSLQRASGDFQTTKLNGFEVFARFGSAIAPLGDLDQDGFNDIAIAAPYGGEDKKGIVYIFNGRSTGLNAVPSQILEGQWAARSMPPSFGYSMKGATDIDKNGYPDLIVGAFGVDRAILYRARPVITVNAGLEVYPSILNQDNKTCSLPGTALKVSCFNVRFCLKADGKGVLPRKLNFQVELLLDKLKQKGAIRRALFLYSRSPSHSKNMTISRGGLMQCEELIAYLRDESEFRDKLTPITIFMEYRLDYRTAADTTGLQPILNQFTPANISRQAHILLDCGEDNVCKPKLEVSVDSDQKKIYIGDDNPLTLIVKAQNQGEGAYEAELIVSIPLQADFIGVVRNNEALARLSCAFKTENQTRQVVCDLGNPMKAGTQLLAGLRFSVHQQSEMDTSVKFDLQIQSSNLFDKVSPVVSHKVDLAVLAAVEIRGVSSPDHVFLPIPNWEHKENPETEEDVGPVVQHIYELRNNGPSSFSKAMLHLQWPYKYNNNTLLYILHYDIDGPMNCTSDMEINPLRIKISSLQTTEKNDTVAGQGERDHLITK
Sequence of Integrin alpha-V/beta-3 (P06756 891-1048 limits assumed): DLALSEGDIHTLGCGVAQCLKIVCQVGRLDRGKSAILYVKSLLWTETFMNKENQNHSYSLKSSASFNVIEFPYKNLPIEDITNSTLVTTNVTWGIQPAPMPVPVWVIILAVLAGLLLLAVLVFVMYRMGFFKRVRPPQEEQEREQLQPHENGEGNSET
The target in another series is Integrin alpha-V/beta-5 (Homo sapiens, UniProt P06756+P18084). Briefly: Inhibition of integrin […] receptor by ELISA. Format: protein-complex assay.
Sequence of Integrin alpha-V/beta-5 (P06756 31-889 limits assumed): as the sequence (P06756 31-889 limits assumed) above
Sequence of Integrin alpha-V/beta-5 (P06756 891-1048 limits assumed): as the sequence (P06756 891-1048 limits assumed) above
Sequence of Integrin alpha-V/beta-5 (P18084 24-799 limits assumed): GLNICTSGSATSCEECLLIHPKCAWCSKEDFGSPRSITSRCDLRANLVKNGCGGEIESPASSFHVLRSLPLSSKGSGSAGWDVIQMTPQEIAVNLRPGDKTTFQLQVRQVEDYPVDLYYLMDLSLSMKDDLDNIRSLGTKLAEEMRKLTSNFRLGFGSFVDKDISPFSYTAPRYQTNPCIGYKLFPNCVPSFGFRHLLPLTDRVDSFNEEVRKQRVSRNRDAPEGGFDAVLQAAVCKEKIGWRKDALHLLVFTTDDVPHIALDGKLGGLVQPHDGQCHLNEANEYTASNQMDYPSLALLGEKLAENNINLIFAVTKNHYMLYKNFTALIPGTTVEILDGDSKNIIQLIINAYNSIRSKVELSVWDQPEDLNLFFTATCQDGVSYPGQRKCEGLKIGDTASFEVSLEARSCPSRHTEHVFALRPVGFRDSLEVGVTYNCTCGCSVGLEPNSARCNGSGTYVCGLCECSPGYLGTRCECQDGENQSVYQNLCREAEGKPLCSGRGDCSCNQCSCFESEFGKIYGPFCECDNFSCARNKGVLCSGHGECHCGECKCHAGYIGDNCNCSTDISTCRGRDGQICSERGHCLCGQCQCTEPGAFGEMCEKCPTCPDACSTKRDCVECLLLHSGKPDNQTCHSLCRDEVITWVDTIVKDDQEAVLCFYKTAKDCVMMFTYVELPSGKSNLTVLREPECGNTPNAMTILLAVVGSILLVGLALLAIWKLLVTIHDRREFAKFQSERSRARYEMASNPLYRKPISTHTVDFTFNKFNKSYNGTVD
For series [2], the target named is Integrin alpha-IIb/beta-3 (Homo sapiens, UniProt P05106+P08514). Briefly: Inhibition of integrin alpha2bbeta3 receptor by ELISA. Format: protein-complex assay.
The target in series [3] is T1, Integrin alpha-5/beta-1. The series can be described thus: Inhibition of integrin alpha5beta1 receptor-mediated HEK293 cell adhesion. It is filed as cell-based.
The nature of series [4]: Metabolic stability in human microsomes assessed as compound remaining at 1 uM after 1 hr. Conditions: read-out: Stability. Format: ADME, Microsome.
Series [5] can be described thus: Systemic clearance in Beagle dog at 10 mg/kg, iv administered as bolus dose. Details: dose 10 mg/kg, route intravenous. Format: ADME, organism-based, Canis lupus familiaris. As to conditions: in vivo.
Another series has as its system Canis familiaris. The series can be described thus: Hepatic blood flow in Beagle dog at 10 mg/kg, iv administered as bolus dose. It is filed as ADME, organism-based, Canis lupus familiaris, Liver. Further details: dose 10 mg/kg, route intravenous. As to conditions: in vivo.
The nature of series [6]: Elimination half life in Beagle dog at 10 mg/kg, iv administered as bolus dose. It is filed as ADME, organism-based, Canis lupus familiaris. Details: dose 10 mg/kg, route intravenous. As to conditions: in vivo, read-out: beta t1/2.
A short description of series [7]: Oral bioavailability in Beagle dog at 10 mg/kg administered as bolus dose. It is filed as ADME, organism-based, Canis lupus familiaris. As to conditions: in vivo.
The nature of series [8]: Dissociation constant, pKa of the compound. It is filed as physicochemical.
A short description of series [9]: Total body clearance in rat at 1 mg/kg, iv. Format: ADME, organism-based. Further details: dose 1 mg/kg, route intravenous. Conditions: in vivo.
A short description of series [10]: Oral bioavailability in rat at 10 mg/kg, po. Format: ADME, organism-based. Conditions: in vivo.
Series [11] is described as follows: Metabolic stability in rat microsomes assessed as compound remaining at 1 uM after 1 hr. It is filed as ADME, Microsome. Conditions: read-out: Stability.

T1 sequence (P05556 21-798 limits assumed): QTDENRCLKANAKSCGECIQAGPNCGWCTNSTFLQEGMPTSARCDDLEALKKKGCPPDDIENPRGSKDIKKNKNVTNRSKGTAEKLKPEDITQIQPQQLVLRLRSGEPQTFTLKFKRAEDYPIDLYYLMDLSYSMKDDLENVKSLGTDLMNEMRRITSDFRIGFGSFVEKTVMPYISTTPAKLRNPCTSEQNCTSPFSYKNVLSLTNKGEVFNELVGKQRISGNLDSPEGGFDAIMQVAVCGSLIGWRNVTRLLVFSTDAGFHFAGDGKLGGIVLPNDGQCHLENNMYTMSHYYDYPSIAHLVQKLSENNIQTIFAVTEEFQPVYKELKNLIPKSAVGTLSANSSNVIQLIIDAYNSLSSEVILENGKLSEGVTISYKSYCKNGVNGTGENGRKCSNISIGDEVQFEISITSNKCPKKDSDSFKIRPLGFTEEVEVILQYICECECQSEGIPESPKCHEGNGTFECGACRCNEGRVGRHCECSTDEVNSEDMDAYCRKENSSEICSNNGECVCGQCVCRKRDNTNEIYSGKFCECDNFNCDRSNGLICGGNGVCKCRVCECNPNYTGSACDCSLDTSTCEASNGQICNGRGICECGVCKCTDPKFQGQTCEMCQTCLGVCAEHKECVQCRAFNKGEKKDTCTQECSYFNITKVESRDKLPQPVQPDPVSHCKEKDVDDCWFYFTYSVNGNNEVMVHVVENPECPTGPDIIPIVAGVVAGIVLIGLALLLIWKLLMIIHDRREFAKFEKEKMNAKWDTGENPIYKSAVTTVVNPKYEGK
T1 sequence (P08648 42-894 limits assumed): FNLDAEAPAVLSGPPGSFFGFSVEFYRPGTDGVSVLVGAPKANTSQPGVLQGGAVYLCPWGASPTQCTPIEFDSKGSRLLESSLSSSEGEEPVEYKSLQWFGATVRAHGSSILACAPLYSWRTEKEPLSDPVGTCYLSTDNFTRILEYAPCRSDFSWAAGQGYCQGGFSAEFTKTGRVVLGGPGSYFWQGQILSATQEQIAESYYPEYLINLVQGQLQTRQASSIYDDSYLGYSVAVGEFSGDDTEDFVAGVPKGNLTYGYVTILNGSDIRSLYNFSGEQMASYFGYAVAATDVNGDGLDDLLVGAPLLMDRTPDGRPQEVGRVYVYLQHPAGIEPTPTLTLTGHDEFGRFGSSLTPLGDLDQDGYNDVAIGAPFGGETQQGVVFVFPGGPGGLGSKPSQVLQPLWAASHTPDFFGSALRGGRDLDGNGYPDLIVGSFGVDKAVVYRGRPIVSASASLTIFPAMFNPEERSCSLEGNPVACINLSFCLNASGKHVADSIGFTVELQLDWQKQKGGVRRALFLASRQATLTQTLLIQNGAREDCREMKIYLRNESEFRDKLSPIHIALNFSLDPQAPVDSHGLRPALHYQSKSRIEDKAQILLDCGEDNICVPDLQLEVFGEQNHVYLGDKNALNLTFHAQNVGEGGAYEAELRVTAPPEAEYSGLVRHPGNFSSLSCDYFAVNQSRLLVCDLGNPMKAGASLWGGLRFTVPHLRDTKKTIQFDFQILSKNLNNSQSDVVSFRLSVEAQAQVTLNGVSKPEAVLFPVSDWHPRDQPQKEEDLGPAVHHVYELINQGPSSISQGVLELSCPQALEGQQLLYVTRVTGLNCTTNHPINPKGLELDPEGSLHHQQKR
T1 sequence (P08648 895-1049 limits assumed): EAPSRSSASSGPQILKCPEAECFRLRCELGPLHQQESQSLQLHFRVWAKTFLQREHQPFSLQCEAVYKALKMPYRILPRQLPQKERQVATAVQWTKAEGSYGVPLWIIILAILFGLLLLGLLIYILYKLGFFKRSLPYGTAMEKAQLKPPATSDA

For the compound `CCc1cc(F)cc(C)c1C(=O)NC(Cc1ccc(N2CCC(CNc3ccccn3)CC2)cc1)C(=O)O` (stereo not given), the IC50 was 2 nM at Integrin alpha-5/beta-1 [1]; 1050 nM at Integrin alpha-V/beta-3; 11700 nM at Integrin alpha-V/beta-5; 71700 nM in [2]; 76 nM against Integrin alpha-5/beta-1 [3]. Moreover, in series [4], the remaining at 1 h, 1 µM was 105%.

As to `CCc1cc(F)cc(C)c1C(=O)N[C@@H](Cc1ccc(N2CCC(CNc3ccccn3)CC2)cc1)C(=O)O`, the IC50 against Integrin alpha-5/beta-1 [1] came out at 0.9 nM; against Integrin alpha-V/beta-3, 614 nM; against Integrin alpha-V/beta-5, 12400 nM; in [2], 121000 nM; against Integrin alpha-5/beta-1 [3] it was 21 nM. The same compound showed a clearance in series [5] of 11 mL/min/kg. In addition, the LBF in the series on Canis familiaris is given as 37%. Besides, the half-life in series [6] worked out at 3.58 h. The bioavailability in [7] came to 11%.

For the compound `CCc1cc(F)cc(C)c1C(=O)N[C@H](Cc1ccc(N2CCC(CNc3ccccn3)CC2)cc1)C(=O)O`, the IC50 is 351 nM at Integrin alpha-5/beta-1 [1]; 16600 nM against Integrin alpha-V/beta-3; 15600 nM against Integrin alpha-V/beta-5; 159000 nM in [2]; 6910 nM at Integrin alpha-5/beta-1 [3].

For `COc1ccnc(NCC2CCN(c3ccc(CC(NC(=O)c4c(C)cc(C)cc4C)C(=O)O)cc3)CC2)c1` (stereo not given), the 50% inhibitory concentration (IC50) against Integrin alpha-5/beta-1 [1] stood at 0.92 nM; against Integrin alpha-V/beta-3 it was 89 nM; against Integrin alpha-V/beta-5 it was 3540 nM; on Integrin alpha-5/beta-1 [3], 34 nM. Also, the pKa in [8] came to 7.7. In addition, the clearance in [9] amounted to 110 mL/min/kg. The compound further had a bioavailability in series [10] of 6%. Further, the remaining at 1 h, 1 µM in [11] worked out at 62%.

Turning to `Cc1cccc(C)c1C(=O)NC(Cc1ccc(N2CCC(CNc3ccccn3)CC2)cc1)C(=O)O` (stereo not given), the IC50 against Integrin alpha-5/beta-1 [1] was 1.6 nM; at Integrin alpha-V/beta-3 it was 239 nM; against Integrin alpha-V/beta-5 it was 1870 nM; in [2] it was 77700 nM. Besides, in series [4], the remaining at 1 h, 1 µM stood at 59%.

As to `CCc1cccc(C)c1C(=O)NC(Cc1ccc(N2CCC(CNc3ccccn3)CC2)cc1)C(=O)O` (stereo not given), the IC50 worked out at 2.2 nM against Integrin alpha-5/beta-1 [1], 648 nM against Integrin alpha-V/beta-3, 11500 nM against Integrin alpha-V/beta-5 and 87200 nM in [2]. Besides, the remaining at 1 h, 1 µM in series [4] came to 52%.

For the compound `Cc1cc(F)cc(C)c1C(=O)NC(Cc1ccc(N2CCC(CNc3ccccn3)CC2)cc1)C(=O)O` (stereo not given), the IC50 is 2.7 nM at Integrin alpha-5/beta-1 [1], 402 nM against Integrin alpha-V/beta-3, 8290 nM at Integrin alpha-V/beta-5 and 105000 nM in series [2]. In series [4], the remaining at 1 h, 1 µM worked out at 69%.

As to `O=C(O)[C@H](Cc1ccc(N2CCC(CNc3ccccn3)CC2)cc1)N1Cc2ccccc2C1=O`, the IC50 at Integrin alpha-5/beta-1 [1] was found to be 234 nM; against Integrin alpha-V/beta-3 it was 13.4 nM; at Integrin alpha-V/beta-5, 3320 nM; in [2], 76700 nM.

Consider `Cc1cc(C)c(C(=O)NC(Cc2ccc(N3CCC(CNc4ccccn4)CC3)cc2)C(=O)O)c(C)c1` (stereo not given), for which the IC50 against Integrin alpha-5/beta-1 [1] came to 2.1 nM; on Integrin alpha-V/beta-3 it was 642 nM; against Integrin alpha-V/beta-5, 15000 nM; in series [2], 40200 nM; on Integrin alpha-5/beta-1 [3] it was 198 nM. For the same compound, the pKa in series [8] was found to be 7. Besides, the clearance in series [9] stood at 16 mL/min/kg. In [10], the bioavailability was 24%. Besides, the remaining at 1 h, 1 µM in series [11] worked out at 85%.

As for `Cc1ccnc(NCC2CCN(c3ccc(CC(NC(=O)c4c(C)cc(C)cc4C)C(=O)O)cc3)CC2)c1` (stereo not given), the figures for the IC50 (on Integrin alpha-V/beta-5; in [2]; on Integrin alpha-5/beta-1 [3]) were 10700 nM, 23400 nM and 69 nM, respectively. The compound further had a pKa in series [8] of 7.5. Besides, the remaining at 1 h, 1 µM in [11] worked out at 77%.

As to `O=C(N[C@@H](Cc1ccc(N2CCC(CNc3ccccn3)CC2)cc1)C(=O)O)c1ccccc1`, the IC50 came to 70 nM at Integrin alpha-5/beta-1 [1], 4.3 nM against Integrin alpha-V/beta-3, 32.1 nM against Integrin alpha-V/beta-5 and 14800 nM in series [2].
